Test results taken from paper PMC4527756 (Bioorganic & medicinal chemistry, 2015).
Read-outs that look alike come from different tables or passages of the source.

Key:
α4β2* nAChR [1] = conditions: [3H]cytisine, cited from earlier work; for Ki: read-out: α4β2* Ki
mouse tail-flick test = conditions: cited from earlier work
α7* nAChR = α7* nAChR (Rattus norvegicus, UniProt Q05941); experiment: radioligand binding assay, α7* nAChR; design: species or system Sprague-Dawley rat
α3β4* nAChR = α3β4* nAChR (Sus scrofa, UniProt A0A287A7Z4+O18764); experiment: radioligand binding assay, α3β4* nAChR; design: species or system pig
α4β2* nAChR [2] = molecular target: α4β2* nAChR (Rattus norvegicus, UniProt P09483+P12390); experiment: radioligand binding assay, α4β2* nAChR; design: species or system Sprague-Dawley rat; conditions: for Measured activity scale: class of measured α4β2* Ki; for affinity for nAChR subtypes (in words): α4β2* and other nAChR subtypes tested
[3] = molecular target: (α1)2β1γδ ("muscle type") nAChR (Tetronarce californica, UniProt P02710+P02714+P02718); experiment: radioligand binding assay, muscle type nAChR; design: species or system Torpedo californica
α4β2* nAChRs = conditions: cited from earlier work
[4] = system: mouse tail suspension test; conditions: cited from earlier work
α4β2* nAChR [5] = conditions: read-out: α4β2* Ki; cited from earlier work
α7 nAChR = conditions: read-out: α7 nAChR IC50; selective α7 nAChR agonist; cited from earlier work

α4β2* nAChR (Rattus norvegicus, UniProt P09483+P12390), sequence (P09483 31-630): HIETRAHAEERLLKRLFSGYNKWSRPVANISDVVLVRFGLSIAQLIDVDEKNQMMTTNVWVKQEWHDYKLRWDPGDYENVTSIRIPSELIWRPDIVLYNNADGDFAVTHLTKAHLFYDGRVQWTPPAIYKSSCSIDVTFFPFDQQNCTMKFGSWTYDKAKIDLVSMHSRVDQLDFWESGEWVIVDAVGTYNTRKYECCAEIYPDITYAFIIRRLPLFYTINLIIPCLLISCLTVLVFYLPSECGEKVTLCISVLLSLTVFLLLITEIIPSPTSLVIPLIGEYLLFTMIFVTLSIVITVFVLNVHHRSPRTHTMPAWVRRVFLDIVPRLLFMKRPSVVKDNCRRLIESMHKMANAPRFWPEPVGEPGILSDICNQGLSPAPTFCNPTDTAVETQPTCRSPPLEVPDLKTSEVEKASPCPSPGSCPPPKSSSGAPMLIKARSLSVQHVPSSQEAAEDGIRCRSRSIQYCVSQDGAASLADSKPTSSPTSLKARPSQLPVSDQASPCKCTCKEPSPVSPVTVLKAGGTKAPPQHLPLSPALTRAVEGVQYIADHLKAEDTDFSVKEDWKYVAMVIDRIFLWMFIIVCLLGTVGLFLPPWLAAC
α4β2* nAChR (Rattus norvegicus, UniProt P09483+P12390), sequence (P12390 25-500): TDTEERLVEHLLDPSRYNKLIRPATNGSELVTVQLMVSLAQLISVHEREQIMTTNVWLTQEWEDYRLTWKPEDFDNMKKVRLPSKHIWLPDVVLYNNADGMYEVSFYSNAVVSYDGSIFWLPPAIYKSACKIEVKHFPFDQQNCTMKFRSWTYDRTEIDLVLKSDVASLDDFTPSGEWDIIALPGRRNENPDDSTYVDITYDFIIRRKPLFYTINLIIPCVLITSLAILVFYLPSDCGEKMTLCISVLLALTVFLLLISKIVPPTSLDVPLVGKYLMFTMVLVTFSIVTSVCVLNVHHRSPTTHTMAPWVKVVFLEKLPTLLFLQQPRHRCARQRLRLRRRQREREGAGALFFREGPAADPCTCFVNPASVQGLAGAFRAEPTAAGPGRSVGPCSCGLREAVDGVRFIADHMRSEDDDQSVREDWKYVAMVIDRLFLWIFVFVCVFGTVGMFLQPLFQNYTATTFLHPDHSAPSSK
(α1)2β1γδ ("muscle type") nAChR, sequence (P02718 22-522): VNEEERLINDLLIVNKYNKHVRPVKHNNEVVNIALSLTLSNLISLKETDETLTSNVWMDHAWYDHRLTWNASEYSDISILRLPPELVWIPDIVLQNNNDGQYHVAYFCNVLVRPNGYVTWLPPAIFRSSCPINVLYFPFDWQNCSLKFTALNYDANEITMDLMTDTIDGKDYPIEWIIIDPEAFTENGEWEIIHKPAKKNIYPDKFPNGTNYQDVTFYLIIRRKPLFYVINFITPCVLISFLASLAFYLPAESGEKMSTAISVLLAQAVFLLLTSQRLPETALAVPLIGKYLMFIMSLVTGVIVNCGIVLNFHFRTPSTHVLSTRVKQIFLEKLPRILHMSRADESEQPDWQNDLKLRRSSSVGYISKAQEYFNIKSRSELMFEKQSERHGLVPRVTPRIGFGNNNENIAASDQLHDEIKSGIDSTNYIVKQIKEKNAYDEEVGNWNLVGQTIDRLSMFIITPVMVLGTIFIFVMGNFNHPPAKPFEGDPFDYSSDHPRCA
(α1)2β1γδ ("muscle type") nAChR, sequence (P02714 18-506): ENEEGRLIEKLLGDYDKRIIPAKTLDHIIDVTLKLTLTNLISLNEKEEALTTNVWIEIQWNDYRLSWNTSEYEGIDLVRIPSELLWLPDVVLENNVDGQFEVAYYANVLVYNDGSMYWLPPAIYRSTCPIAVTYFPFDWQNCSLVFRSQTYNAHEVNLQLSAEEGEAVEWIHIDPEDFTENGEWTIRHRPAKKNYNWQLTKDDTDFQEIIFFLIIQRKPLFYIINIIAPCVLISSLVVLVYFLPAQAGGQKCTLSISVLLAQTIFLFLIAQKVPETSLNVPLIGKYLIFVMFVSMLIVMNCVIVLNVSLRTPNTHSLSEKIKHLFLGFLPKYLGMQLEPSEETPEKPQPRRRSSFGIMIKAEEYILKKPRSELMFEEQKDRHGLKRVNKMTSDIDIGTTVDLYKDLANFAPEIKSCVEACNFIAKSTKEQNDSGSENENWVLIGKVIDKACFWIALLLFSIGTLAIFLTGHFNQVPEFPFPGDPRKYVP
(α1)2β1γδ ("muscle type") nAChR, sequence (P02710 25-461): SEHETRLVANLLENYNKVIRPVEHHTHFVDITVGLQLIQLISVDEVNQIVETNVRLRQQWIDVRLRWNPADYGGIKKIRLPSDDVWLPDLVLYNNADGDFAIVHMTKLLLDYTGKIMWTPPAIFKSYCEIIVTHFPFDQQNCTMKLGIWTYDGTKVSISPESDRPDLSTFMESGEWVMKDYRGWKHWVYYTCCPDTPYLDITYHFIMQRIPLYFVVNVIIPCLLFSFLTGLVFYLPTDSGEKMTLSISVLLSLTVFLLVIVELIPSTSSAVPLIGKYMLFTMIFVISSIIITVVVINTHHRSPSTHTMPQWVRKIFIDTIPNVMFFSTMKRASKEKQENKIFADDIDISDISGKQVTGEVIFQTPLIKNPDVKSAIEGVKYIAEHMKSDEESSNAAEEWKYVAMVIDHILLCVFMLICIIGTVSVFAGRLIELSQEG
(α1)2β1γδ ("muscle type") nAChR, sequence (P02712 25-493, further chain): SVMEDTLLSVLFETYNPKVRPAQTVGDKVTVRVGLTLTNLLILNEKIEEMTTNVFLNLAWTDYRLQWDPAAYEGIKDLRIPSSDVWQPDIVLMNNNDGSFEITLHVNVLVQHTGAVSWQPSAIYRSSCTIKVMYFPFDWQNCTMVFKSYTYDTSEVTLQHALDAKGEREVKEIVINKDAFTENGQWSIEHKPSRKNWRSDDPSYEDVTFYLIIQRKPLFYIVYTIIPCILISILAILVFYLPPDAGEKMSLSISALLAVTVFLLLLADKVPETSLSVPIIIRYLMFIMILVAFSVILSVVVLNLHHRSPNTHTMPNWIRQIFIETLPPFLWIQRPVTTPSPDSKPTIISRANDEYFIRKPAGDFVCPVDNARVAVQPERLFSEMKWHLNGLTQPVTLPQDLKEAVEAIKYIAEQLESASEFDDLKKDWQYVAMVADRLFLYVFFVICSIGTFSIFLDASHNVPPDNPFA
α7* nAChR, sequence (Q05941 23-502): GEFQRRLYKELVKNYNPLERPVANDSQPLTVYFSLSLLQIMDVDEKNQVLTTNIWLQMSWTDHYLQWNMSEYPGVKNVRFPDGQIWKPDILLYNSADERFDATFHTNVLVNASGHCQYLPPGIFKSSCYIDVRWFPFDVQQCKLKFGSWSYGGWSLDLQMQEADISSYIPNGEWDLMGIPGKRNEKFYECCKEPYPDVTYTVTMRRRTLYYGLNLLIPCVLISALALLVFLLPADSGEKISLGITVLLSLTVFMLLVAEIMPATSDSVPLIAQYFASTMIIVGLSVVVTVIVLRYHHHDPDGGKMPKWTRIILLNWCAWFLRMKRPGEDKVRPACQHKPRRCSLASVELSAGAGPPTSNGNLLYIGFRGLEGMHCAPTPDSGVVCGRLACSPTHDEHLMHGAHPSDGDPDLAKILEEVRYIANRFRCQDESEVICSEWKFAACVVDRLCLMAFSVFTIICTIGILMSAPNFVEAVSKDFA

Compound: CN(C)CCOc1cccnc1 [Compound 9, N,N-dimethyl-2-(pyridin-3-yloxy)ethan-1-amine]
- Ki (α4β2* nAChR [1]; ref 23): 32.6 nM
- Ki (α4β2* nAChR [1]; ref 24): 24 nM
- In vivo activity ED50 (mouse tail-flick test): ED50 (mg/kg) = 15 (mouse tail-flick test) [24]

Compound: CN(C)CCOc1cncc(-c2cncc(OCCN(C)C)c2)c1 [Compound 10, 2,2′-([3,3′-bipyridine]-5,5′-diylbis(oxy))bis(N,N-dimethylethanamine)]
- interaction with α7* nAChR (in words) (α7* nAChR): no interaction
- interaction with α3β4* nAChR (in words) (α3β4* nAChR): no interaction
- fold decreased α4β2* affinity in comparison with single entity 9 (α4β2* nAChR [2]; versus compound 9): approximately nine-fold

Compound: CN1CCCN(c2cccnc2)CC1 [Compound 12b]
- IC50 (α4β2* nAChR [1]; read-out: α4β2* (IC50), printed as IC50 in Ki column): 150 nM

Compound: c1cncc(N2CCNCC2)c1 [Compound 13a]
- Ki (α4β2* nAChR [1]; ref 26): 90 nM

Compound: CN1CCN(c2cccnc2)CC1 [Compound 13b]
- Ki (α4β2* nAChR [1]; ref 26): 90 nM

Compound: CN(C)CCOc1cncc(N2CC3CNCC(C3)C2)c1 [Compound 17a, 2-((5-(3,7-diazabicyclo[3.3.1]nonan-3-yl)pyridin-3-yl)oxy)-N,N-dimethylethanamine]
- Ki [3]: > 1000 nM
- functional activity for α4β2* nAChRs (in words) (α4β2* nAChRs): partial agonist activity
- Measured activity scale (α4β2* nAChR [2]): +++ (highly active +++, Ki < 150 nM)
- effect in the mouse tail suspension test (in words) [4]: efficacy in the mouse tail suspension test

Compound: CN(C)CCOc1cc(F)cc(N2CC3CNCC(C3)C2)c1 [Compound 17b, 2-(3-(3,7-diazabicyclo[3.3.1]nonan-3-yl)-5-fluorophenoxy)-N,N-dimethylethanamine]
- Ki [3]: > 1000 nM

Compound: CN(C)CCOc1cc(N2CC3CNCC(C3)C2)cc(F)c1F [Compound 17c, 2-(5-(3,7-diazabicyclo[3.3.1]nonan-3-yl)-2,3-difluorophenoxy)-N,N-dimethylethanamine]
- Ki [3]: > 1000 nM

Compound: CN(C)CCOc1cncc(N2CCCNCC2)c1 [Compound 18a, 2-((5-(1,4-diazepan-1-yl)pyridin-3-yl)oxy)-N,N-dimethylethanamine]
- Ki [3]: > 1000 nM
- Measured activity scale (α4β2* nAChR [2]): +++ (highly active +++, Ki < 150 nM)

Compound: CN(C)CCOc1cncc(N2CCCN(C)CC2)c1 [Compound 19a, N,N-dimethyl-2-((5-(4-methyl-1,4-diazepan-1-yl)pyridin-3-yl)oxy)ethanamine]
- Ki (α4β2* nAChR [2]): 6.9 nM
- Measured activity scale (α4β2* nAChR [2]): ++ (moderately active ++, 150 nM < Ki < 1,000 nM)

Compound: CN(C)CCOc1cncc(N2CCNCC2)c1 [Compound 20a, N,N-dimethyl-2-{[5-(piperazin-1-yl)pyridin-3-yl]oxy}ethanamine]
- Ki [3]: > 1000 nM
- fold lower α4β2* affinity in comparison with compound 17a (α4β2* nAChR [2]): about 770 fold
- Measured activity scale (α4β2* nAChR [2]): +++ (highly active +++, Ki < 150 nM)

Compound: CN(C)CCOc1cncc(N2CCN(C)CC2)c1 [Compound 21a, N,N-dimethyl-2-{[5-(4-methylpiperazin-1-yl)pyridin-3-yl]oxy}ethanamine]
- Ki [3]: > 1000 nM
- Measured activity scale (α4β2* nAChR [2]): +++ (highly active +++, Ki < 150 nM)

Compound: CN(C)CCOc1cncc(N2CCC2)c1 [Compound 22, 2-{[5-(azetidin-1-yl)pyridin-3-yl]oxy}-N,N-dimethylethanamine]
- interaction with α7* nAChR (in words) (α7* nAChR): no activity
- Measured activity scale (α4β2* nAChR [2]): ++ (moderately active ++, 150 nM < Ki < 1,000 nM)

Compound: CN(C)CCOc1cncc(N2CCCC2)c1 [Compound 23, N,N-dimethyl-2-{[5-(pyrrolidin-1-yl)pyridin-3-yl]oxy}ethanamine]
- Measured activity scale (α4β2* nAChR [2]): + (inactive +, Ki > 1,000 nM)
- affinity for nAChR subtypes (in words) (α4β2* nAChR [2]): complete loss of affinity

Compound: CN(C)CCOc1cncc(N2CCCCC2)c1 [Compound 24, N,N-dimethyl-2-{[5-(piperidin-1-yl)pyridin-3-yl]oxy}ethanamine]
- Measured activity scale (α4β2* nAChR [2]): + (inactive +, Ki > 1,000 nM)
- affinity for nAChR subtypes (in words) (α4β2* nAChR [2]): complete loss of affinity

Compound: CN(C)CCOc1cncc(N2CCOCC2)c1 [Compound 25, N,N-dimethyl-2-{[5-(morpholin-4-yl)pyridin-3-yl]oxy}ethanamine]
- Measured activity scale (α4β2* nAChR [2]): + (inactive +, Ki > 1,000 nM)
- affinity for nAChR subtypes (in words) (α4β2* nAChR [2]): complete loss of affinity

Compound: CN(C)CCOc1cncc(N2CCC(O)CC2)c1 [Compound 26, 1-(5-(2-(dimethylamino)ethoxy)pyridin-3-yl)piperidin-4-ol]
- interaction with α7* nAChR (in words) (α7* nAChR): no activity
- Measured activity scale (α4β2* nAChR [2]): ++ (moderately active ++, 150 nM < Ki < 1,000 nM)

Compound: CN1[C@@H](CC(=O)c2ccccc2)CCC[C@H]1C[C@H](O)c1ccccc1 [Lobeline 1, lobeline]
- Ki (α4β2* nAChR [5]): 4 to 30 nM

Compound: CCN(CC)CCOc1ccc2c(c1)C(=O)c1cc(OCCN(CC)CC)ccc1-2 [tilorone 8, tilorone]
- IC50 (α7 nAChR): 110 nM
